The NIST ThermoML archive (doi:10.1016/j.jct.2007.07.005)

Assay: xn = mol fraction of the nth substance listed
Conditions: Fluid (supercritical or subcritical phases), vibrating tube

CCCCCO [pentan-1-ol] + O=C=O
Conditions | mass density [kg/m3]
332.96 K, 13004 kPa, x2 = 0.0816 | 798.35
332.96 K, 13052 kPa, x2 = 0.7274 | 804
332.96 K, 14008 kPa, x2 = 0.7274 | 808.02
332.96 K, 14029 kPa, x2 = 0.0816 | 799.18
332.96 K, 14991 kPa, x2 = 0.0816 | 799.97
332.96 K, 15033 kPa, x2 = 0.7274 | 812.1
332.96 K, 16004 kPa, x2 = 0.0816 | 800.75
332.96 K, 16033 kPa, x2 = 0.7274 | 815.82
332.96 K, 17014 kPa, x2 = 0.0816 | 801.55
332.96 K, 17034 kPa, x2 = 0.7274 | 819.37
332.96 K, 17988 kPa, x2 = 0.7274 | 822.59
332.96 K, 18018 kPa, x2 = 0.0816 | 802.33
332.96 K, 19024 kPa, x2 = 0.0816 | 803.1
332.96 K, 19059 kPa, x2 = 0.7274 | 826.03
332.96 K, 19981 kPa, x2 = 0.0816 | 803.83
332.96 K, 20008 kPa, x2 = 0.7274 | 828.96
332.96 K, 20999 kPa, x2 = 0.7274 | 831.94
332.96 K, 21024 kPa, x2 = 0.0816 | 804.62
332.96 K, 22023 kPa, x2 = 0.7274 | 834.87
332.96 K, 22057 kPa, x2 = 0.0816 | 805.42
332.96 K, 23004 kPa, x2 = 0.7274 | 837.6
332.96 K, 23012 kPa, x2 = 0.0816 | 806.12
332.96 K, 23961 kPa, x2 = 0.7274 | 840.19
332.96 K, 24007 kPa, x2 = 0.0816 | 806.87
332.96 K, 25043 kPa, x2 = 0.0816 | 807.63
333.01 K, 7029 kPa, x2 = 0.1347 | 794.28
333.01 K, 8022 kPa, x2 = 0.1347 | 795.19
333.01 K, 9011 kPa, x2 = 0.1347 | 796.07
333.01 K, 10005 kPa, x2 = 0.1347 | 796.96
333.01 K, 11019 kPa, x2 = 0.1347 | 797.85
333.01 K, 11162 kPa, x2 = 0.6054 | 813.27
333.01 K, 12017 kPa, x2 = 0.1347 | 798.71
333.01 K, 12048 kPa, x2 = 0.6054 | 815.29
333.01 K, 13025 kPa, x2 = 0.1347 | 799.58
333.01 K, 13037 kPa, x2 = 0.6054 | 817.51
333.01 K, 14019 kPa, x2 = 0.1347 | 800.43
333.01 K, 14041 kPa, x2 = 0.6054 | 819.75
333.01 K, 15000 kPa, x2 = 0.1347 | 801.26
333.01 K, 15073 kPa, x2 = 0.6054 | 822.01
333.01 K, 16013 kPa, x2 = 0.1347 | 802.1
333.01 K, 16020 kPa, x2 = 0.6054 | 824.01
333.01 K, 17014 kPa, x2 = 0.1347 | 802.91
333.01 K, 17032 kPa, x2 = 0.6054 | 826.08
333.01 K, 18011 kPa, x2 = 0.1347 | 803.75
333.01 K, 18043 kPa, x2 = 0.6054 | 828.09
333.01 K, 19014 kPa, x2 = 0.1347 | 804.55
333.01 K, 19023 kPa, x2 = 0.6054 | 830
333.01 K, 20028 kPa, x2 = 0.6054 | 831.92
333.01 K, 20029 kPa, x2 = 0.1347 | 805.36
333.01 K, 21007 kPa, x2 = 0.1347 | 806.13
333.01 K, 21051 kPa, x2 = 0.6054 | 833.82
333.01 K, 22021 kPa, x2 = 0.1347 | 806.92
333.01 K, 22023 kPa, x2 = 0.6054 | 835.61
333.01 K, 23026 kPa, x2 = 0.1347 | 807.74
333.01 K, 23040 kPa, x2 = 0.6054 | 837.43
333.01 K, 24005 kPa, x2 = 0.1347 | 808.5
333.01 K, 24066 kPa, x2 = 0.6054 | 839.22
333.01 K, 25039 kPa, x2 = 0.6054 | 840.93
333.01 K, 25049 kPa, x2 = 0.1347 | 809.32
342.76 K, 505 kPa, x2 = 0 | 776.31
342.76 K, 997 kPa, x2 = 0 | 776.77
342.76 K, 1995 kPa, x2 = 0 | 777.69
342.76 K, 3011 kPa, x2 = 0 | 778.59
342.76 K, 4012 kPa, x2 = 0 | 779.47
342.76 K, 5011 kPa, x2 = 0 | 780.34
342.76 K, 6011 kPa, x2 = 0 | 781.22
342.76 K, 7003 kPa, x2 = 0 | 782.03
342.76 K, 8015 kPa, x2 = 0 | 782.91
342.76 K, 9000 kPa, x2 = 0 | 783.73
342.76 K, 10019 kPa, x2 = 0 | 784.58
342.76 K, 11020 kPa, x2 = 0 | 785.4
342.76 K, 12002 kPa, x2 = 0 | 786.2
342.76 K, 13016 kPa, x2 = 0 | 787.02
342.76 K, 14024 kPa, x2 = 0 | 787.81
342.76 K, 15002 kPa, x2 = 0 | 788.59
342.76 K, 16007 kPa, x2 = 0 | 789.36
342.76 K, 17037 kPa, x2 = 0 | 790.15
342.76 K, 17988 kPa, x2 = 0 | 790.87
342.76 K, 19037 kPa, x2 = 0 | 791.66
342.76 K, 20003 kPa, x2 = 0 | 792.38
342.76 K, 21015 kPa, x2 = 0 | 793.14
342.76 K, 22019 kPa, x2 = 0 | 793.88
342.76 K, 23039 kPa, x2 = 0 | 794.62
342.76 K, 24027 kPa, x2 = 0 | 795.36
342.76 K, 25028 kPa, x2 = 0 | 796.1
342.84 K, 15024 kPa, x2 = 0.9757 | 576.16
342.84 K, 16006 kPa, x2 = 0.9757 | 609.2
342.84 K, 17033 kPa, x2 = 0.9757 | 637.26
342.84 K, 18023 kPa, x2 = 0.9757 | 659.89
342.84 K, 19028 kPa, x2 = 0.9757 | 679.62
342.84 K, 20027 kPa, x2 = 0.9757 | 696.58
342.84 K, 21039 kPa, x2 = 0.9757 | 711.98
342.84 K, 22011 kPa, x2 = 0.9757 | 725.1
342.84 K, 23016 kPa, x2 = 0.9757 | 737.54
342.87 K, 8048 kPa, x2 = 0.3624 | 796.26
342.87 K, 9023 kPa, x2 = 0.3624 | 797.49
342.87 K, 10006 kPa, x2 = 0.4651 | 797.4
342.87 K, 10022 kPa, x2 = 0.3624 | 798.77
342.87 K, 11004 kPa, x2 = 0.3624 | 799.97
342.87 K, 11022 kPa, x2 = 0.4651 | 799.24
342.87 K, 11991 kPa, x2 = 0.4651 | 801.02
342.87 K, 12013 kPa, x2 = 0.3624 | 801.19
342.87 K, 13001 kPa, x2 = 0.4651 | 802.82
342.87 K, 13035 kPa, x2 = 0.3624 | 802.37
342.87 K, 13990 kPa, x2 = 0.3624 | 803.48
342.87 K, 13990 kPa, x2 = 0.4651 | 804.53
342.87 K, 14011 kPa, x2 = 0.7274 | 784.26
342.87 K, 14992 kPa, x2 = 0.7274 | 789
342.87 K, 15018 kPa, x2 = 0.3624 | 804.64
342.87 K, 15036 kPa, x2 = 0.4651 | 806.31
342.87 K, 16009 kPa, x2 = 0.3624 | 805.73
342.87 K, 16014 kPa, x2 = 0.4651 | 807.95
342.87 K, 16025 kPa, x2 = 0.7274 | 793.59
342.87 K, 17000 kPa, x2 = 0.3624 | 806.82
342.87 K, 17004 kPa, x2 = 0.4651 | 809.55
342.87 K, 17006 kPa, x2 = 0.7274 | 797.68
342.87 K, 18005 kPa, x2 = 0.7274 | 801.59
342.87 K, 18017 kPa, x2 = 0.4651 | 811.18
342.87 K, 18021 kPa, x2 = 0.3624 | 807.94
342.87 K, 19019 kPa, x2 = 0.4651 | 812.75
342.87 K, 19032 kPa, x2 = 0.7274 | 805.44
342.87 K, 19036 kPa, x2 = 0.3624 | 809.03
342.87 K, 19983 kPa, x2 = 0.7274 | 808.81
342.87 K, 20012 kPa, x2 = 0.3624 | 810.06
